Some test systems named below: RXF-631 renal; P388/ADR leukemia; SN12K1 renal; P388 leukemia.
What all share (assay): NCI tumour cell line growth inhibition, 48 h

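Growth conditions: 96-well plates. Treatment: test compound, 48 hours, 5 concentrations. Analysis: linear interpolation between bracketing concentrations; unreached endpoints set to highest concentration. Definition used: TGI = concentration required for complete inhibition of growth.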 Some results are limits rather than exact numbers.

The molecule `CCCCCCCCCCCCCCCCCCN(C)CC(COC)OP(=O)([O-])OCC[N+](C)(C)C` (stereo not drawn) yielded a TGI in the assay on RXF-631 renal of 22 µM.
Regarding `CC1CC(C)(O)C2C3(C)CCCC2(COC3=O)C12CCC1(CCOC1=O)O2` (stereo not drawn), the figures for the TGI with P388/ADR leukemia, with SN12K1 renal and in the assay on P388 leukemia were more than 116 µM, more than 250 µM and more than 250 µM, respectively.
`O=C(O)C1=C(CO)Oc2cc3c(cc2C1c1ccc2c(c1)OCO2)OCO3` (stereo not drawn) yielded a TGI in the assay on RXF-631 renal of more than 100 µM.
As for `O=P1(Oc2ccc(Cl)cc2Cl)Oc2cc3ccccc3cc2O1`, the TGI in the assay on P388/ADR leukemia was 64.1 µM; with SN12K1 renal, more than 100 µM; in the assay on P388 leukemia, 32.6 µM.

The values above are taken from PubChem BioAssay (NCI).
